Laboratory results taken from patent US8889874B2, “Imidazolone-chalcone derivatives as potential anticancer agent and process for the preparation thereof” (Council of Scientific and Industrial Research, priority 2010, dated 2014).
Where two headings read alike, the source gives them in different places.

What was measured:
Experiment in all cases: NCI anticancer screen, SRB assay, 48 h
Type in all cases: cell-based, human
[1] = system: HOP-92 (non-small cell lung); details: Homo sapiens
Summary of the method: (§1)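 Sulforhodamine B protein assay read cell growth after 48 h of continuous compound exposure. Dose-response curves per cell line used at least five 10-fold-diluted concentrations, within a panel of fifty-three human lines from nine tumour types.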

SK-OV-3 (ovarian) = details: Homo sapiens
Summary of the method: as §1

HCT-15 (colon) = details: Homo sapiens
Summary of the method: as §1

HT29 (colon) = details: Homo sapiens
Summary of the method: as §1

[2] = system: HOP-62 (non-small cell lung); details: Homo sapiens
Summary of the method: as §1

TD-47D (breast) = details: Homo sapiens
Summary of the method: as §1

HS 578T (breast) = details: Homo sapiens
Summary of the method: as §1

OVCAR-5 (ovarian) = details: Homo sapiens
Summary of the method: as §1

ACHN (renal) = details: Homo sapiens
Summary of the method: as §1

OVCAR-3 (ovarian) = details: Homo sapiens
Summary of the method: as §1

BT-549 (breast) = details: Homo sapiens
Summary of the method: as §1

UACC-257 (melanoma) = details: Homo sapiens
Summary of the method: as §1

SNB-19 (CNS) = details: Homo sapiens
Summary of the method: as §1

M14 (melanoma) = details: Homo sapiens
Summary of the method: as §1

SF-539 (CNS) = details: Homo sapiens
Summary of the method: as §1

NCI/ADR-RES (ovarian) = details: Homo sapiens, NCI/ADR-RES
Summary of the method: as §1

COLO 205 (colon) = details: Homo sapiens, COLO 205
Summary of the method: as §1

CAKI-1 (renal) = details: Homo sapiens
Summary of the method: as §1

MALME-3M (melanoma) = details: Homo sapiens
Summary of the method: as §1

UACC-62 (melanoma) = details: Homo sapiens
Summary of the method: as §1

[3] = system: NCI-H226 (non-small cell lung); details: Homo sapiens
Summary of the method: as §1

[4] = system: NCI-H460 (non-small cell lung); details: Homo sapiens
Summary of the method: as §1

TK-10 (renal) = details: Homo sapiens
Summary of the method: as §1

SN12C (renal) = details: Homo sapiens, SN12C
Summary of the method: as §1

OVCAR-8 (ovarian) = details: Homo sapiens
Summary of the method: as §1

HCC-2998 (colon) = details: Homo sapiens
Summary of the method: as §1

SK-MEL-2 (melanoma) = details: Homo sapiens
Summary of the method: as §1

[5] = system: NCI-H522 (non-small cell lung); details: Homo sapiens
Summary of the method: as §1

[6] = system: NCI-H23 (non-small cell lung); details: Homo sapiens
Summary of the method: as §1

KM12 (colon) = details: Homo sapiens
Summary of the method: as §1

[7] = system: K-562 (leukemia cell line); details: Homo sapiens
Summary of the method: as §1

LOX IMVI (melanoma) = details: Homo sapiens
Summary of the method: as §1

SNB-75 (CNS) = details: Homo sapiens
Summary of the method: as §1

SF-268 (CNS) = details: Homo sapiens
Summary of the method: as §1

MDA-MB-231/ATCC (breast) = details: Homo sapiens
Summary of the method: as §1

[8] = system: EKVX (non-small cell lung); details: Homo sapiens
Summary of the method: as §1

[9] = 48 h exposure, SRB, read-out: GI50
[10] = read-out: pGI50 (-log of molar concentration causing 50% inhibition of net cell growth) (converted)
[11] = HT-29, 48 h exposure, SRB, read-out: GI50
[12] = HT-29, read-out: pGI50 (-log of molar concentration causing 50% inhibition of net cell growth) (converted)
[13] = NCl/ADR-RES, 48 h exposure, SRB, read-out: GI50
[14] = COLO205, read-out: pGI50 (-log of molar concentration causing 50% inhibition of net cell growth) (converted)
[15] = Malme-3M, read-out: pGI50 (-log of molar concentration causing 50% inhibition of net cell growth) (converted)
[16] = MALME-3M, 48 h exposure, SRB, read-out: GI50
[17] = SN 12C, read-out: pGI50 (-log of molar concentration causing 50% inhibition of net cell growth) (converted)
[18] = K562, 48 h exposure, SRB, read-out: GI50
[19] = K562, read-out: pGI50 (-log of molar concentration causing 50% inhibition of net cell growth) (converted)

COc1cc(/C=C/C(=O)c2cccc(-n3cc(-c4ccc(Cl)cc4)[nH]c3=O)c2)ccc1O [3f, 4-(4-chlorophenyl)-1-3-[(E)-3-(4-hydroxy-3-methoxyphenyl)-2-propenoyl]phenyl-2,3-dihydro-1H-2-imidazolone]
GI50 [1, 9]: 1260 nM
GI50 [1, 10]: 1260 nM
GI50 (SK-OV-3 (ovarian); [9]): 3190 nM
GI50 (SK-OV-3 (ovarian); [10]): 3160 nM
GI50 (HCT-15 (colon); [9]): 1800 nM
GI50 (HCT-15 (colon); [10]): 1820 nM
GI50 (HT29 (colon); [11]): 2970 nM
GI50 (HT29 (colon); [12]): 2950 nM
GI50 [2, 9]: 2840 nM
GI50 [2, 10]: 2820 nM
GI50 (TD-47D (breast); [9]): 3090 nM
GI50 (TD-47D (breast); [10]): 3090 nM
GI50 (HS 578T (breast); [9]): 4670 nM
GI50 (HS 578T (breast); [10]): 4680 nM
GI50 (OVCAR-5 (ovarian); [9]): 2000 nM
GI50 (OVCAR-5 (ovarian); [10]): 2000 nM
GI50 (ACHN (renal); [9]): 2190 nM
GI50 (ACHN (renal); [10]): 2190 nM
GI50 (OVCAR-3 (ovarian); [9]): 1560 nM
GI50 (OVCAR-3 (ovarian); [10]): 1550 nM
GI50 (BT-549 (breast); [9]): 2520 nM
GI50 (BT-549 (breast); [10]): 2510 nM
GI50 (UACC-257 (melanoma); [9]): 8690 nM
GI50 (UACC-257 (melanoma); [10]): 8710 nM
GI50 (SNB-19 (CNS); [9]): 3170 nM
GI50 (SNB-19 (CNS); [10]): 3160 nM
GI50 (M14 (melanoma); [9]): 2860 nM
GI50 (M14 (melanoma); [10]): 2880 nM
GI50 (SF-539 (CNS); [9]): 1780 nM
GI50 (SF-539 (CNS); [10]): 1780 nM
GI50 (NCI/ADR-RES (ovarian); [13]): 2280 nM
GI50 (NCI/ADR-RES (ovarian); [10]): 2290 nM
GI50 (COLO 205 (colon); [14]): 3390 nM
GI50 (COLO 205 (colon); [9]): 3400 nM
GI50 (CAKI-1 (renal); [9]): 2640 nM
GI50 (CAKI-1 (renal); [10]): 2630 nM
GI50 (MALME-3M (melanoma); [15]): 3090 nM
GI50 (MALME-3M (melanoma); [16]): 3060 nM
GI50 (UACC-62 (melanoma); [9]): 2740 nM
GI50 (UACC-62 (melanoma); [10]): 2750 nM
GI50 [3, 9]: 2770 nM
GI50 [3, 10]: 2750 nM
GI50 [4, 9]: 3900 nM
GI50 [4, 10]: 3890 nM
GI50 (TK-10 (renal); [9]): 4670 nM
GI50 (TK-10 (renal); [10]): 4680 nM
GI50 (SN12C (renal); [17]): 2880 nM
GI50 (SN12C (renal); [9]): 2870 nM
GI50 (OVCAR-8 (ovarian); [9]): 4180 nM
GI50 (OVCAR-8 (ovarian); [10]): 4170 nM
GI50 (HCC-2998 (colon); [9]): 1850 nM
GI50 (HCC-2998 (colon); [10]): 1860 nM
GI50 (SK-MEL-2 (melanoma); [9]): 3660 nM
GI50 (SK-MEL-2 (melanoma); [10]): 3630 nM
GI50 [5, 9]: 2360 nM
GI50 [5, 10]: 2340 nM
GI50 [6, 9]: 3180 nM
GI50 [6, 10]: 3160 nM
GI50 (KM12 (colon); [9]): 1480 nM
GI50 (KM12 (colon); [10]): 1480 nM
GI50 [7, 18]: 1420 nM
GI50 [7, 19]: 1410 nM
GI50 (LOX IMVI (melanoma); [9]): 1630 nM
GI50 (LOX IMVI (melanoma); [10]): 1620 nM
GI50 (SNB-75 (CNS); [9]): 2750 nM
GI50 (SNB-75 (CNS); [10]): 2750 nM
GI50 (SF-268 (CNS); [9]): 2500 nM
GI50 (SF-268 (CNS); [10]): 2510 nM
GI50 (MDA-MB-231/ATCC (breast); [9]): 3870 nM
GI50 (MDA-MB-231/ATCC (breast); [10]): 3890 nM
GI50 [8, 9]: 9610 nM
GI50 [8, 10]: 9550 nM

COc1cc(/C=C/C(=O)c2cccc(-n3cc(-c4ccccc4)[nH]c3=O)c2)ccc1O [3a, 1-3-[(E)-3-(4-hydroxy-3-methoxyphenyl)-2-propenoyl]phenyl-4-phenyl-2,3-dihydro-1H-2-imidazolone]
GI50 [1, 9]: 2270 nM
GI50 [1, 10]: 2290 nM
GI50 (SK-OV-3 (ovarian); [9]): 3760 nM
GI50 (SK-OV-3 (ovarian); [10]): 3800 nM
GI50 (HCT-15 (colon); [9]): 2730 nM
GI50 (HCT-15 (colon); [10]): 2750 nM
GI50 (HT29 (colon); [11]): 3770 nM
GI50 (HT29 (colon); [12]): 3800 nM
GI50 [2, 9]: 1480 nM
GI50 [2, 10]: 1480 nM
GI50 (TD-47D (breast); [9]): 2700 nM
GI50 (TD-47D (breast); [10]): 2690 nM
GI50 (HS 578T (breast); [9]): 4160 nM
GI50 (HS 578T (breast); [10]): 4170 nM
GI50 (OVCAR-5 (ovarian); [9]): 2040 nM
GI50 (OVCAR-5 (ovarian); [10]): 2040 nM
GI50 (ACHN (renal); [9]): 2500 nM
GI50 (ACHN (renal); [10]): 2510 nM
GI50 (OVCAR-3 (ovarian); [9]): 2290 nM
GI50 (OVCAR-3 (ovarian); [10]): 2290 nM
GI50 (BT-549 (breast); [9]): 2780 nM
GI50 (BT-549 (breast); [10]): 2750 nM
GI50 (UACC-257 (melanoma); [9]): 6810 nM
GI50 (UACC-257 (melanoma); [10]): 6760 nM
GI50 (SNB-19 (CNS); [9]): 2960 nM
GI50 (SNB-19 (CNS); [10]): 2950 nM
GI50 (M14 (melanoma); [9]): 2610 nM
GI50 (M14 (melanoma); [10]): 2630 nM
GI50 (SF-539 (CNS); [9]): 1910 nM
GI50 (SF-539 (CNS); [10]): 1910 nM
GI50 (NCI/ADR-RES (ovarian); [13]): 2920 nM
GI50 (NCI/ADR-RES (ovarian); [10]): 2950 nM
GI50 (COLO 205 (colon); [14]): 2190 nM
GI50 (COLO 205 (colon); [9]): 2210 nM
GI50 (CAKI-1 (renal); [9]): 2190 nM
GI50 (CAKI-1 (renal); [10]): 2190 nM
GI50 (MALME-3M (melanoma); [15]): 2690 nM
GI50 (MALME-3M (melanoma); [16]): 2670 nM
GI50 (UACC-62 (melanoma); [9]): 2010 nM
GI50 (UACC-62 (melanoma); [10]): 2000 nM
GI50 [3, 9]: 2600 nM
GI50 [3, 10]: 2570 nM
GI50 [4, 9]: 1950 nM
GI50 [4, 10]: 1950 nM
GI50 (TK-10 (renal); [9]): 5290 nM
GI50 (TK-10 (renal); [10]): 5250 nM
GI50 (SN12C (renal); [17]): 3310 nM
GI50 (SN12C (renal); [9]): 3310 nM
GI50 (OVCAR-8 (ovarian); [9]): 4110 nM
GI50 (OVCAR-8 (ovarian); [10]): 4070 nM
GI50 (HCC-2998 (colon); [9]): 1510 nM
GI50 (HCC-2998 (colon); [10]): 1510 nM
GI50 (SK-MEL-2 (melanoma); [9]): 3650 nM
GI50 (SK-MEL-2 (melanoma); [10]): 3630 nM
GI50 [5, 9]: 2360 nM
GI50 [5, 10]: 2340 nM
GI50 [6, 9]: 2020 nM
GI50 [6, 10]: 2040 nM
GI50 (KM12 (colon); [9]): 1610 nM
GI50 (KM12 (colon); [10]): 1620 nM
GI50 [7, 18]: 2040 nM
GI50 [7, 19]: 2040 nM
GI50 (LOX IMVI (melanoma); [9]): 1880 nM
GI50 (LOX IMVI (melanoma); [10]): 1860 nM
GI50 (SNB-75 (CNS); [9]): 3900 nM
GI50 (SNB-75 (CNS); [10]): 3890 nM
GI50 (SF-268 (CNS); [9]): 2070 nM
GI50 (SF-268 (CNS); [10]): 2090 nM
GI50 (MDA-MB-231/ATCC (breast); [9]): 3360 nM
GI50 (MDA-MB-231/ATCC (breast); [10]): 3390 nM
GI50 [8, 9]: 3900 nM
GI50 [8, 10]: 3890 nM
